Experimental data reported in PubChem BioAssay AID743030 (The Scripps Research Institute Molecular Screening Center, 2013).

Experiments:
Assay in all cases: plasma and brain homogenate binding extent – biochemical, LC-MS, human, mouse, rat plasma, rat brain, ADME assay for V1a-R antagonist project, late-stage follow-up (AID 743030)
Conditions in all cases: equilibrium dialysis, 16 h, at 2.5 µM; call rule not given here
Mouse plasma proteins = system: Mouse plasma proteins
Rat brain tissue = system: Rat brain tissue
Human plasma proteins = system: Human plasma proteins
Rat plasma proteins = system: Rat plasma proteins

Measured: fraction bound

O=C(C1CCN(c2ccc(Cl)cn2)CC1)N(CC1CC1)c1ccc(Cl)cc1
active: Mouse plasma proteins 97.7% | Rat brain tissue > 99.5% | Human plasma proteins 99.4% | Rat plasma proteins 99.5%
